Laboratory results reported in paper PMC11876671, “Investigating blood–brain barrier penetration and neurotoxicity of natural products for central nervous system drug development” (Scientific Reports, 2025).

Assay: not given
Conditions: not given

Structure (SMILES) | PAMPA-BBB Pe(10^-6 cm/sec)
COc1cc2c(c3oc(=O)c4c(c13)CCC4=O)[C@@H]1C=CO[C@@H]1O2 [AFLATOXIN B1] | 7.2 10^-6 cm/sec
COc1cc2c(c3oc(=O)c4c(c13)CCOC4=O)C1C=COC1O2 (stereo not shown) [AFLATOXIN G1] | <1 10^-6 cm/sec
COc1cc2c(c3oc(=O)c4c(c13)CCC4=O)[C@@H]1CCO[C@@H]1O2 [DIHYDROAFLATOXINE B1] | 2.8 10^-6 cm/sec

Same assay, conditions: PAMPA

Structure (SMILES) | PAMPA-BBB Pe(10^-6 cm/sec) | PAMPA-BBB Pe
O=C(N[C@H](CO)[C@H](O)c1ccc([N+](=O)[O-])cc1)C(Cl)Cl [CHLORAMPHENICOL] | 3.5 10^-6 cm/sec | 
Cc1nccc2c1[nH]c1ccccc12 [HARMAN] |  | 60 10^-6 cm/sec

Same assay, conditions: Table S2: compounds exhibiting moderate to high PAMPA-BBB permeability

Structure (SMILES) | PAMPA-BBB Pe
COc1cc(OC)c2c(c1Cl)O[C@]1(C2=O)[C@H](C)CC(=O)C[C@@H]1OC [NCGC00016380-01] | 31 10^-6 cm/sec
COc1ccc(C(=O)OC2C[C@H]3CC[C@H](C2)N3C)cc1OC (stereo partly shown) [NCGC00016471-04] | 16 10^-6 cm/sec
COC(=O)c1c(C)c2c(c(C)c1O)OC(=O)c1c(C)c(Cl)c(O)c(Cl)c1O2 [NCGC00095464-04] | 281 10^-6 cm/sec
COC(=O)c1c(OC)cc2c(c1C)Oc1c(Cl)c(O)c(Cl)c(C)c1C(=O)O2 [NCGC00095466-04] | 27 10^-6 cm/sec
COc1ccc(-c2coc3cc(O)ccc3c2=O)c(O)c1O [NCGC00095474-02] | 14 10^-6 cm/sec
CCOC(=O)c1c(C)cc(O)c(C=O)c1O [NCGC00095517-01] | 110 10^-6 cm/sec
CCOC(=O)c1c(C)cc(OC)cc1O [NCGC00095529-01] | 290 10^-6 cm/sec
COc1cc2c(cc1OC)C(=O)OC2 [NCGC00095581-04] | 12 10^-6 cm/sec
CC(=O)Oc1ccc(/C=C/c2cc(OC(C)=O)cc(OC(C)=O)c2)cc1 [NCGC00095675-03] | 200 10^-6 cm/sec
COc1cc(OC)c2c(c1)OC(c1ccccc1)CC2=O (stereo not shown) [NCGC00142553-05] | 176 10^-6 cm/sec
CCCCCc1c2c(cc(O)c1C(=O)O)OC(=O)c1cc(C(=O)CCCC)c(OC)cc1O2 [NCGC00160140-01] | 120 10^-6 cm/sec
COc1ccc([C@@H](C)C(=O)c2ccc(O)cc2O)cc1 [NCGC00160149-03] | 345 10^-6 cm/sec
COc1cc2c(cc1OC)-c1cc3cc(OC)c(OC)cc3c(=O)n1CC2 [NCGC00160189-01] | 232 10^-6 cm/sec
COc1cc(=O)n(C)c2c(OCC3OC(C)(C)OC3(C)C)cccc12 (stereo not shown) [NCGC00160200-01] | 106 10^-6 cm/sec
COc1cccc2c(=O)c3ccoc3n(C)c12 [NCGC00160208-01] | 54 10^-6 cm/sec
CN(C)CCc1cc2c(c3c1ccc1ccccc13)OCO2 [NCGC00160247-01] | 27 10^-6 cm/sec
C/C=C/c1ccc(OC(C)[C@@H](O)c2ccc(O)c(OC)c2)c(OC)c1 (stereo partly shown) [NCGC00160251-01] | 150 10^-6 cm/sec
COc1ccc(C(=O)OC2CC3CC[C@H](C2)N3C(C)=O)cc1OC (stereo partly shown) [NCGC00160255-01] | 22 10^-6 cm/sec
O=C1CCC[C@H]2[C@H]3CCCN4CCCC(=CN12)[C@@H]34 [NCGC00160276-01] | 33 10^-6 cm/sec
COc1cc2c(cc1OC)C(C(=O)c1ccc(OC)c(OC)c1O)=NCC2 [NCGC00160282-01] | 19 10^-6 cm/sec
c1cnc2c(-c3nccc4c3[nH]c3ccccc34)cccc2c1 [NCGC00160283-01] | 352 10^-6 cm/sec
CC1=CC(=O)C2=C(C)C[C@@H]3OC(=O)[C@@H](C)[C@H]3C=C12 [NCGC00160288-01] | 74 10^-6 cm/sec
COC(=O)C1=CO[C@@H](C)[C@@H]2CN3CC[C@]4(C(=O)Nc5c4ccc(OC)c5OC)[C@H]3C[C@H]12 [NCGC00160292-01] | 46 10^-6 cm/sec
COc1cc(/C=C/C(=O)c2ccc(O)cc2O)ccc1O [NCGC00163564-01] | 188 10^-6 cm/sec
C/C=C(/C)C(=O)O[C@H]1CC(C)=CC(=O)[C@@]2(C)CC[C@@](O)(C(C)C)[C@H]12 [NCGC00163582-01] | 125 10^-6 cm/sec
COc1cc(C(=O)O[C@H]2CC(C)=CCC/C(C)=C/[C@@H](O)C2C(C)C)ccc1O (stereo partly shown) [NCGC00163636-01] | 88 10^-6 cm/sec
C[C@@H]1O[C@@H](O[C@H]2CC[C@@H](O[C@H]3[C@H](O)C[C@H](c4ccc5c(c4O)C(=O)C4=C(C5=O)[C@@]5(O)C(=O)C[C@](C)(O[C@H]6CC[C@H](O[C@H]7C=CC(=O)[C@H](C)O7)[C@H](C)O6)C[C@@]5(O)C=C4)O[C@@H]3C)O[C@H]2C)C=CC1=O [NCGC00163640-01] | 17 10^-6 cm/sec
CC(=O)OC(C)(C)[C@@H]1Cc2cc3ccc(=O)oc3cc2O1 [NCGC00178115-02] | 128 10^-6 cm/sec
COc1cc2c(cc1-c1coc3c4c(c(OC)cc3c1=O)OC(C)(C)C=C4)OCO2 [NCGC00178961-03] | 146 10^-6 cm/sec

Same assay, conditions: Table S3: compounds exhibiting low PAMPA-BBB permeability

Structure (SMILES) | PAMPA-BBB Pe(10^-6 cm/sec)
N[C@H](C(=O)O)c1ccc(O)c(C(=O)O)c1 [NCGC00024539-02] | <1 10^-6 cm/sec
COc1ccc(C(=O)CC(=O)O)c2c1C=CC(C)(C)O2 [NCGC00074767-03] | <1 10^-6 cm/sec
O=C(O)c1cc2ccccc2[nH]1 [NCGC00094957-03] | <1 10^-6 cm/sec
Cc1cc(O)c(C)c(O)c1C(=O)O [NCGC00095485-03] | <1 10^-6 cm/sec
O=C/C=C/c1ccc(O)cc1 [NCGC00095729-01] | 4.5 10^-6 cm/sec
COc1ccc(C2CC(=O)c3ccc(OC)cc3O2)cc1 (stereo not shown) [NCGC00095734-01] | 5.8 10^-6 cm/sec
Cc1cc(O)c(C=O)c(O)c1C(=O)O [NCGC00095742-01] | 2.7 10^-6 cm/sec
COc1cc(C/C=C\c2ccccc2)c(OC)cc1O [NCGC00160148-01] | 1.3 10^-6 cm/sec
O=C(NC[C@H](O)c1ccccc1)c1ccccc1 [NCGC00160191-01] | <1 10^-6 cm/sec
COc1c(O)cc2c(=O)oc3c(OC)c(O)cc4c(=O)oc1c2c34 [NCGC00160203-01] | <1 10^-6 cm/sec
COc1cc2oc(=O)c3c4c(cc5ccc(c1CCN(C)C)c2c53)OCO4 [NCGC00160212-01] | <1 10^-6 cm/sec
COc1c2ccoc2nc2c(OC)c(O[C@@H]3O[C@H](C)[C@@H](O)[C@@H](O)[C@H]3O)ccc12 [NCGC00160235-01] | <1 10^-6 cm/sec
Cn1c2c(c(=O)c3ccccc31)C[C@@H](O)C(C)(C)O2 [NCGC00160238-01] | <1 10^-6 cm/sec
COc1ccc([C@@H]2[C@@H](O)[C@H](O)[C@@H](C)N2C)cc1OC [NCGC00160242-01] | 1.3 10^-6 cm/sec
O=C1N[C@@H](Cc2c[nH]c3ccccc23)C(=O)N[C@H]1Cc1c[nH]c2ccccc12 [NCGC00160254-01] | <1 10^-6 cm/sec
C/C=C(\C)C(=O)O[C@H]1CC(C)=C2C(=O)C=C(C)C2[C@@H]2OC(=O)[C@@](C)(OC(=O)C=C(C)C)C21 (stereo partly shown) [NCGC00160270-01] | 5.7 10^-6 cm/sec
Cc1cc(O)c2c(c1O)C(=O)C(O)=C(O)C2=O [NCGC00160271-01] | 4.8 10^-6 cm/sec
CNCCCCc1cnc(C)c2[nH]c3ccccc3c12 [NCGC00160349-01] | <1 10^-6 cm/sec
COC(=O)C(O)C(O)(CCC(C)C)C(=O)OC1C(OC)=CC23CCCN2CCc2cc4c(cc2C13)OCO4 (stereo not shown) [NCGC00161614-01] | <1 10^-6 cm/sec
Cn1cnc2c(ncn2[C@@H]2O[C@H](CO)[C@@H](O)[C@H]2O)c1=N [NCGC00163305-01] | <1 10^-6 cm/sec
Nc1ncnc2c1ncn2[C@@H]1O[C@H](COP(=O)(O)OP(=O)(O)OC[C@H]2OC(O)[C@H](O)[C@@H]2O)[C@@H](O)[C@H]1O (stereo partly shown) [NCGC00163321-01] | <1 10^-6 cm/sec
COc1ccc2[nH]cc(CCO)c2c1 [NCGC00163352-01] | 9.4 10^-6 cm/sec
C[C@]12O[C@H](C[C@@]1(O)C(=O)O)n1c3ccccc3c3c4c(c5c6ccccc6n2c5c31)CNC4=O [NCGC00163504-01] | <1 10^-6 cm/sec
COc1cc2oc(=O)ccc2cc1O [NCGC00163577-02] | 2.2 10^-6 cm/sec
C[C@@H]1OC(O[C@H]2[C@H](Oc3cc(O)c4c(=O)c(O)c(-c5ccc(O)cc5)oc4c3)O[C@H](CO)[C@@H](O)[C@@H]2O)[C@H](O)[C@H](O)[C@H]1O (stereo partly shown) [NCGC00163581-01] | <1 10^-6 cm/sec
OC1c2ccccc2N=C2CCCN21 (stereo not shown) [NCGC00163606-01] | 5.3 10^-6 cm/sec
COc1cc(-c2oc3cc(O)cc(O)c3c(=O)c2O[C@@H]2O[C@H](CO)[C@@H](O)[C@H](O)[C@H]2O)cc(OC)c1O [NCGC00163630-01] | <1 10^-6 cm/sec
COC1=C(O)C(=O)c2c(cc3oc(C(C)=O)c(O)c3c2O)C1=O [NCGC00178066-02] | <1 10^-6 cm/sec

Assay: in vitro
Conditions: PAMPA, PAMPA-BBB Pe(10^-6 cm/sec), Table S3: compounds exhibiting low PAMPA-BBB permeability

Structure (SMILES) | Papp [×10⁻⁶ cm/s]
C[C@@H]1Cc2c(Cl)cc(C(=O)N[C@@H](Cc3ccccc3)C(=O)O)c(O)c2C(=O)O1 [[…]] | 1.6
Cc1cc(O)cc(O)c1C(=O)O [[…]] | < 1
O=C1/C(=C\c2ccc(O)c(O)c2)Oc2c1ccc(O[C@@H]1O[C@H](CO)[C@@H](O)[C@H](O)[C@H]1O)c2O [[…]] | 1
Oc1cc(O)cc(/C=C/c2ccc(O)c(O)c2)c1 [[…]] | 1
[O-][n+]1ccccc1SSc1cccc[n+]1[O-] [[…]] | < 1
COC1=C[C@@H]2C3=C([C@@H]2C1=O)[C@@H](NC(C)=O)CCc1cc(OC)c(OC)c(OC)c13 [β-Lumicolchicine] | 3.6

Same assay, conditions: PAMPA, PAMPA-BBB Pe, Table S2: compounds exhibiting moderate to high PAMPA-BBB permeability

Structure (SMILES) | Papp [×10⁻⁶ cm/s]
CC(C)[C@H]1C(=O)N[C@H](CO)Cc2c[nH]c3cccc(c23)N1C [[…]] | 47
CN1CC[C@]23c4ccccc4N[C@H]1[C@]21CCN(C)[C@H]3Nc2ccccc21 [[…]] | 23
COC(=O)/C=C\C(=O)O [[…]] | 48
C[C@H]1COC2=C1C(=O)C(=O)c1c2ccc2c1CCCC2(C)C [[…]] | 12
O=C1c2ccccc2-n2c1nc1ccccc1c2=O [[…]] | 141
